In brackets after ≈: the same amount, converted by molar mass. Bounds are passed on as bounds.

Series [1] deals with Staphylococcus epidermidis ATCC 35984. Briefly: MIC, broth microdilution, MDR/BPSE reference strain. Format: cell-based. Particulars: for MIC: Staphylococcus epidermidis, ATCC35984, read-out: MIC MDR/BPSE, Staphylococcus epidermidis ATCC 35984. The text has this: (§1) These strains included susceptible, multidrug-resistant, and biofilm-producing strains of S. epidermidis and S. aureus (MSSE, MDR/BPSE, and MDR/BPSA, respectively). The cornerstone antibiotic linezolid served as a positive control (Table 1). The impact of structural modifications at the aryloxy fragment and the aromatic moiety bound to the propyl linker on the inhibitory activity was initially investigated. […] Further optimization focused on evaluating the impact of the type of substituent and its position on the arylsulfonamide fragment’s activity.
(§2) 2 Biological assay protocols
(§3) Microbiological tests were carried out under aseptic conditions in a laminar chamber of the 2nd […]
(§4) (BioTectum 1.2, Alchem Poland). The assessment of antimicrobial activity was carried out for final compounds in the form of free bases, soluble in DMSO (Merck, Germany), at the initial […]
(§5) concentration of 1 mg/mL. […]
(§6) were provided by Cayman Chemical, USA.
(§7) The activity of all newly synthesized compounds was tested in vitro on a panel of selected reference strains from the American Type Culture Collection (ATCC) of Gram-positive […]
(§8) 2.2 Effect of evaluated compounds on planktonic cells
(§9) The susceptibility of three reference bacterial strains (Staphylococcus epidermidis ATCC […]
(§10) Table S1) and 81 clinical MDR S. epidermidis (Table S2) to the tested compounds was assessed by determining the MIC value (Minimal Inhibitory Concentration) by microdilution in a liquid medium in 96-well flat-bottom cell culture plates (Nest Biotechnology Scientific, USA). The antibacterial properties of the compo unds were tested in the concentration range from 50 µg/mL to 0.1 µg/mL by making a series of double dilutions of the compound in liquid Mueller -Hinton II Broth Cation Adjusted (MHB II, BBL TM, USA) according to the European Committee on […]
(§11) Antimicrobial Susceptibility Testing guidelines (EUCAST).2,3 The determinations were performed twice. The MIC50 and MIC90 values were determined for each of the tested
(In broth dilution the organism is exposed to a series of concentrations in liquid medium.)

The next series concerns horse red blood cells. Briefly: Hemolytic activity assay. The conditions noted are these: for %hem (hemolytic activity): 200 μM, 1 h, n = 3; for lysis of erythrocytes: concentrations up to 200 μM. As for the experimental part: 2.3.3 Hemolytic activity assay
The hemolytic properties of tested compound were evaluated according to previously reported procedure.6 Defibrinated horse red blood cells purchased from Thermo Fisher Scientific (Germany) were washed with PBS (3000 rpm, 10 min at 4 °C) for three times followed by PBS dilution to obtain a 8% suspension. Then, 100 μL of the resulting suspensions […]
were treated with 100 μL of tested compound at the final concentration of 200 μM, and incubated at 37 °C for 1 h. Triton X-100 (2%) and PBS were used as positive and negative controls, respectively. After centrifugation at 3000 rpm for 3 min, 100 μL of the supernatants were transferred to a 96 well microtiter plate and the hemoglobin release was determined in a SpectraMax iD3 reader (Molecular Devices) by absorption at 540 nm. […]

For series [2], the system named is Staphylococcus epidermidis no. 44. Briefly: Real-time bacterial growth analysis. The conditions noted are these: real-time growth analysis and MBC/MIC ratio. The class given is cell-based. As for the experimental part:
(reduction of navy blue resazurin to pink resorufin in the presence of metabolically active cells) compared to the negative (sterile medium without bacteria and compounds) and positive control (medium with bacteria).9 The minimal biofilm eradication concentration value was analyzed using a high throughput screening the MBEC Assay® Kit (Innovotech, Canada), formerly the Calgary Biofilm Device, according to the manufacturer's insert.10
2.4.1 Determination of biofilm viability by confocal laser scanning microscope (CLSM) […]
by the selected strains was observed using the confocal laser scanning microscopy technique (CLSM, model Inverted Microscope for Industry Leica DMi8, Wetzlar, Germany). Biofilms were grown on Millicell® EZ SLIDE slides (Merck, Germany)11 and incubated with FilmTracer™ SYPRO™ Ruby Biofilm Matrix Stain (ThermoFisher Scientific, USA).12 2.5 Evaluation of bacteriostatic/bactericidal properties […]
determining MBC (Minimal Bactericidal Concentration) values. The study was conducted in accordance with the guidelines of the Clinical and Laboratory Standards Institute (CLSI).13 The MBC value was assumed to be the concentration of the compound inhibiting the growth of strains in 99.9%. Then, the value of the MBC/MIC ratio was calculated to assess its bactericidal or bacteriostatic activity. […]
compound 25 and linezolid expressed as changes in OD600 over time. […]

Series [3] relates to Pseudomonas aeruginosa ATCC 27853. The series can be described thus: MIC, Gram-negative reference strain. The class given is cell-based. Particulars: for MIC: Pseudomonas aeruginosa, ATCC27853, read-out: MIC P. aeruginosa. As for the experimental part: as §2, §3, §4, §5, §6, §7, §8, §9, §10, §11
Series [4] concerns Acinetobacter baumannii ATCC 19606. Briefly: MIC, Gram-negative reference strain. Format: cell-based. The conditions noted are these: for MIC: Acinetobacter baumannii, ATCC19606. How it is done:
as §2, §3, §4, §5, §6, §7, §8, §9, §10, §11

Series [5] has as its system Escherichia coli ATCC 25922. The series can be described thus: MIC, Gram-negative reference strain. Format: cell-based. The conditions noted are these: for MIC: Escherichia coli, ATCC25922. How it is done: as §2, §3, §4, §5, §6, §7, §8, §9, §10, §11
Series [6] has as its system Staphylococcus epidermidis ATCC 12228. Briefly: MIC, broth microdilution, MSSE reference strain. The class given is cell-based. The conditions noted are these: ATCC12228, Staphylococcus epidermidis ATCC 12228, read-out: MIC MSSE.
Text: as §1, §2, §3, §4, §5, §6, §7, §8, §9, §10, §11

`O=S(=O)(NC1CCN(CCC(Oc2ccc(C(F)(F)F)cc2)c2cccs2)CC1)c1cccc(Cl)c1` (centres unmarked) [Compound 14]: the MIC in series [1] is ≤ 0.8 µg/mL. In addition, in the series on horse red blood cells, the “%hem (hemolytic activity)” value amounted to 0.27% and the lysis of erythrocytes result is recorded as “None of them caused lysis of erythrocytes”.

As to `O=C(Nc1cccc(Cl)c1)NC1CCN(CCC(Oc2ccc(C(F)(F)F)cc2)c2cccs2)CC1` (centres unmarked) [Compound 25], in series [1], the MIC was ≤ 0.8 µg/mL. Further, the bacteriostatic/bactericidal properties result in series [2] is “bacteriostatic properties”. Moreover, in series [3], the “MIC P. aeruginosa” value is recorded as “exceeded 50 µg/mL” and the MIC was found to be 50 µg/mL (≈ 92.9 µM). Also, in series [4], the “MIC A. baumannii” value is on record as “exceeded 50 µg/mL” and the MIC is 50 µg/mL (≈ 92.9 µM). Besides, in series [5], the “MIC E. coli” value is reported as “exceeded 50 µg/mL” and the MIC was determined as 50 µg/mL (≈ 92.9 µM). Further, in the series with horse red blood cells, the “%hem (hemolytic activity)” value was found to be 0.54% and the lysis of erythrocytes result was “None of them caused lysis of erythrocytes”.

For the compound `CC(=O)NC[C@H]1CN(c2ccc(N3CCOCC3)c(F)c2)C(=O)O1` [linezolid, reference compound], the MIC is 1.6 µg/mL (≈ 4.74 µM) in series [1]; 0.8 µg/mL (≈ 2.37 µM) in series [6]; 50 µg/mL (≈ 148 µM) in series [3]; 50 µg/mL (≈ 148 µM) in series [4]; 50 µg/mL (≈ 148 µM) in series [5]. For the same compound, the bacteriostatic/bactericidal properties result in series [2] was “bacteriostatic properties”.

On to `O=S(=O)(NC1CCN(CCC(Oc2ccc(C(F)(F)F)cc2)c2ccccc2)CC1)c1cccc(Cl)c1` (centres unmarked) [Compound 12], for which, in series [1], the “increase of activity against MDR/BPSE compared to hit I” value is “up to 8 fold” and the MIC was ≤ 0.8 µg/mL. For the same compound, the MIC in series [6] was ≤ 6.25 µg/mL. Further, in the series with horse red blood cells, the “%hem (hemolytic activity)” value amounted to 0.48% and the lysis of erythrocytes result was “None of them caused lysis of erythrocytes”.

Consider `O=S(=O)(NC1CCN(CCC(Oc2ccc(C(F)(F)F)cc2)c2cccs2)CC1)c1cccc(C(F)(F)F)c1` (centres unmarked) [Compound 21], for which, in series [6], the MIC was ≤ 6.25 µg/mL.

Turning to `O=S(=O)(NC1CCN(CCC(Oc2ccc(C(F)(F)F)cc2)c2cccs2)CC1)c1cccc(Br)c1` (centres unmarked) [Compound 18], in series [1], the MIC is ≤ 0.8 µg/mL.

(Values after publication PMC10945555, “Improving Activity of New Arylurea Agents against Multidrug-Resistant and Biofilm-Producing Staphylococcus epidermidis” (ACS Medicinal Chemistry Letters, 2024).)
